# Reference: patent US9179694B2, “Method and composition for enhancing milk production and milk component concentrations” (PURINA ANIMAL NUTRITION LLC, priority 2003, dated 2015)
# Marks after values point to notes of the source that are not given here.
# Test: Non-esterified fatty acid (NEFA) concentration in blood in sorbitol feeding trials
# Assay type: in vivo, Holstein cows
# Settings: for lower concentration of NEFA in the blood: at about the time of giving birth
# Procedure: To determine the weight percent of non-esterified fatty acid NEFA, wet basis, in a sample of blood, the blood sample is analyzed by an enzymatic colorimetric method (ACS-ACOD) using the NEFA C diagnostic kit (WAKO Chemicals USA, Richmond, Va.) in combination with an Hitachi 704 Automated Chemistry Analyzer (Hitachi Ltd., Tokyo, Japan). The enzymatic colorimetric method utilizes acyl-CoA synthethase (ACS) and acyl-CoA oxidase (ACOD) to produce a substance that may be measured colorimetrically. The NEFA analysis is conducted in accordance with the NEFA C ACS-ACOD Method instructions that WAKO Chemicals USA provides along with the NEFA C diagnostic kit.
# Each cow of each of the six different trials (Control Trial #1, Control Trial #2, Pre-Partum Trial #1, Pre-Partum Trial #2, Pre/Post Trial #1, and Pre/Post Trial #2) was milked three times daily and the weight of produced milk by each cow was recorded at each milking. The milk from each cow was sampled once per week (⅓ of the sample volume from each of the three milkings occurring on the weekly milk sampling day) and was analyzed for true protein, total fat, lactose, and total solids, as detailed in the property determination and characterization techniques presented above. Additionally, samples of blood were periodically obtained from each cow during the four trials (Control Trial 2, Pre-Partum Trial #2, Pre/Post Trial #1, and Pre/Post Trial #2) encompassed in Example Two and were analyzed for non-esterified fatty acid (NEFA) content as detailed in the property determination and characterization techniques presented above. No NEFA analysis was conducted on the cows employed in Control Trial #1 or Pre-Partum Trial #1 that are the subject of Example One.
# Example Two includes Control Trial #2, Pre-Partum Trial #2, Pre/Post Trial #1, and Pre/Post Trial #2. Only multiparious, Holstein cows were included in Control Trial #2, Pre-Partum Trial #1, Pre/Post Trial #1, and Pre/Post Trial #2. Eighteen multiparious cows were included in both Control Trial #2 and Pre-Partum Trial #2, while sixteen multiparious cows were included in Pre/Post Trial #1 and seventeen multiparious cows were included in Pre/Post Trial #2.
structure (smiles),measurement,setting,value
OC[C@@H](O)[C@@H](O)[C@H](O)[C@@H](O)CO [sorbitol],Non-Esterified Fatty Acid (NEFA) Concentration in Blood,"Pre-Partum Trial #2 (75/0/100 g/day in wk −3..−1/+1..+4/+5..+8), multiparious cows, day 0 (Calving)",0.470^ab mEq/l
same,Non-Esterified Fatty Acid (NEFA) Concentration in Blood,"Pre-Partum Trial #2 (75/0/100 g/day in wk −3..−1/+1..+4/+5..+8), multiparious cows, day +10",0.372 mEq/l
same,Non-Esterified Fatty Acid (NEFA) Concentration in Blood,"Pre-Partum Trial #2 (75/0/100 g/day in wk −3..−1/+1..+4/+5..+8), multiparious cows, day −7",0.122 mEq/l
same,Non-Esterified Fatty Acid (NEFA) Concentration in Blood,"Pre-Partum Trial #2 (75/0/100 g/day in wk −3..−1/+1..+4/+5..+8), multiparious cows, day −21",0.103 mEq/l
same,Non-Esterified Fatty Acid (NEFA) Concentration in Blood,"Pre/Post Trial #1 (150/125/100 g/day in wk −3..−1/+1..+4/+5..+8), multiparious cows, day 0 (Calving)",0.416^a mEq/l
same,Non-Esterified Fatty Acid (NEFA) Concentration in Blood,"Pre/Post Trial #1 (150/125/100 g/day in wk −3..−1/+1..+4/+5..+8), multiparious cows, day 0 (Calving), two-trial comparison with Control Trial #2 (Table 27)",0.416^b mEq/l
same,Non-Esterified Fatty Acid (NEFA) Concentration in Blood,"Pre/Post Trial #1 (150/125/100 g/day in wk −3..−1/+1..+4/+5..+8), multiparious cows, day +10",0.476 mEq/l
same,Non-Esterified Fatty Acid (NEFA) Concentration in Blood,"Pre/Post Trial #1 (150/125/100 g/day in wk −3..−1/+1..+4/+5..+8), multiparious cows, day +10, two-trial comparison with Control Trial #2 (Table 27)",0.476 mEq/l
same,Non-Esterified Fatty Acid (NEFA) Concentration in Blood,"Pre/Post Trial #1 (150/125/100 g/day in wk −3..−1/+1..+4/+5..+8), multiparious cows, day −7",0.107 mEq/l
same,Non-Esterified Fatty Acid (NEFA) Concentration in Blood,"Pre/Post Trial #1 (150/125/100 g/day in wk −3..−1/+1..+4/+5..+8), multiparious cows, day −7, two-trial comparison with Control Trial #2 (Table 27)",0.107 mEq/l
same,Non-Esterified Fatty Acid (NEFA) Concentration in Blood,"Pre/Post Trial #1 (150/125/100 g/day in wk −3..−1/+1..+4/+5..+8), multiparious cows, day −21",0.141 mEq/l
same,Non-Esterified Fatty Acid (NEFA) Concentration in Blood,"Pre/Post Trial #1 (150/125/100 g/day in wk −3..−1/+1..+4/+5..+8), multiparious cows, day −21, two-trial comparison with Control Trial #2 (Table 27)",0.141 mEq/l
same,lower NEFA concentrations in blood,"Pre/Post Trial #1 (150/125/100 g/day) versus Control Trial #2, multiparious cows, at calving (Table 27)",42%
same,Non-Esterified Fatty Acid (NEFA) Concentration in Blood,"Pre/Post Trial #2 (75/75/100 g/day in wk −3..−1/+1..+4/+5..+8), multiparious cows, day 0 (Calving)",0.637^ab mEq/l
same,Non-Esterified Fatty Acid (NEFA) Concentration in Blood,"Pre/Post Trial #2 (75/75/100 g/day in wk −3..−1/+1..+4/+5..+8), multiparious cows, day +10",0.556 mEq/l
same,Non-Esterified Fatty Acid (NEFA) Concentration in Blood,"Pre/Post Trial #2 (75/75/100 g/day in wk −3..−1/+1..+4/+5..+8), multiparious cows, day −7",0.119 mEq/l
same,Non-Esterified Fatty Acid (NEFA) Concentration in Blood,"Pre/Post Trial #2 (75/75/100 g/day in wk −3..−1/+1..+4/+5..+8), multiparious cows, day −21",0.114 mEq/l
same,lower concentration of NEFA in the blood,"Pre/Post Trial #2 (so in the source) versus Control Trial #2, multiparious cows",42%
same,NEFA concentrations in blood compared with control,"all three sorbitol feeding trials (Pre-Partum Trial #2, Pre/Post Trial #1, Pre/Post Trial #2), multiparous cows, the week before calving and at calving",lower than the NEFA concentrations in blood found during Control Trial #2
same,lower concentration of NEFA in the blood,"average of means of Pre-Partum Trial #2, Pre/Post Trial #1 and Pre/Post Trial #2 versus Control Trial #2, multiparious cows",28%
